Data from patent US5135937A, “Cycloalkylene azoles and pharmaceutical preparations obtained therefrom” (Schering Aktiengesellschaft, priority 1989, dated 1992).
Several values for one entry are separate records, joined by “and”; a condition that tells them apart may be missing. Equal entries are not always repeated. Structures can show the parent of a compound that is named as a salt. Where two headings read alike, the source gives them in different places.

Legend:
[1] = test system: Androstenedione-Induced Uterus Growth; assay: Influence on androstenedione-induced uterus growth in infantile rats (Test b); type: in vivo, rat; conditions: 3 days; for Uterus Weight: infantile female rats; for Inhibition in % (of uterus growth, based on the androstenedione group): vehicle basic value deducted
Procedure: (§1) The following compounds are examined as representative:
Influence on Androstenedione-Induced Uterus Growth in Infantile Rats
Infantile female rats receive once daily the compound to be tested in combination with androstenedione over a period of three days. One group receives only androstenedione, and a further group only the vehicle. One day after the last treatment, the animals are sacrificed by decapitation and exsanguination, and the fresh uterus weights (without content) are determined. The uterus weights are calculated for mg/100 g body weight. The average value and standard deviation are calculated for each group. Variance analysis is used to check the significances of the differences with respect to the control group (androstenedione group and, respectively, vehicle group). Furthermore, the percentage inhibition of uterus growth is determined, based on the androstenedione group. In this determination, the uterus weight of the vehicle group (basic value) is deducted from the corresponding weight of the androstenedione group. The individual dosage groups, after subtracting the basic value, are based on the thus-obtained value.

aromatase = biological target: T1, aromatase (Homo sapiens, UniProt P11511); assay: Aromatase inhibition in human placenta (Test a): microsomes, release of 3H2O from [1β-3H]-androstenedione, Ki by Dixon plot; type: biochemical
T1 construct: microsomes obtained from human placenta; from tissue; host or cells: human placenta (microsomes)
T1 sequence (P11511 1-503): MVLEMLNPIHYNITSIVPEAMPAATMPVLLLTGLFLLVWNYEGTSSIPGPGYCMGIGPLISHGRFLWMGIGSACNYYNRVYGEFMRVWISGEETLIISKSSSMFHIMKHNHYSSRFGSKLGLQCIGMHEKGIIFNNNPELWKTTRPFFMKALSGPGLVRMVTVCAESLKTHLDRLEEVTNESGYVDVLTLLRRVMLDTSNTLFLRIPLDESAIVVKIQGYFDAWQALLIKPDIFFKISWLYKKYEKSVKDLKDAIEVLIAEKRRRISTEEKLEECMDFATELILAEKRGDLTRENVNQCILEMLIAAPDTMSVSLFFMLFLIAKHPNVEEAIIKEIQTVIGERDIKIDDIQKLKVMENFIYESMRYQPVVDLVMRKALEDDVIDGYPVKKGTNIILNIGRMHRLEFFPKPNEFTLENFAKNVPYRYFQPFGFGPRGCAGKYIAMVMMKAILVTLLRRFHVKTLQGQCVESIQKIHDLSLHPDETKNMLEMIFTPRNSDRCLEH
Procedure: as §1
Aromatase Inhibition in Human Placenta
The abilities of the compounds of inhibiting the enzyme system of aromatase is tested on microsomes obtained from human placenta.

[2] = compound + AD, 0.2 + 30 mg/kg/day, hydrochloride, 30 mg/kg/day
[3] = compound + AD, 2.0 + 30 mg/kg/day
[4] = human placenta microsomes, [1β-3H]-androstenedione substrate, 4-OH-androstenedione as reference compound, read-out: Ki, Aromatase
[5] = compound + AD, 0.2 + 30 mg/kg/day

N#Cc1ccc(C2CCCc3cncn32)cc1 (racemic) [D, 5-(p-cyanophenyl)-5,6,7,8tetrahydroimidazo[-1,5a]pyridine, hydrochloride, reference compound]
Uterus Weight [1, 2]: 69.9 ± 6.6 mg/100 g BW and 83.2 ± 6.9 mg/100 g BW | Inhibition in % (of uterus growth, based on the androstenedione group) [1, 2]: 84% and 86%

C[C@]12CCC(=O)C(O)=C1CC[C@@H]1[C@@H]2CC[C@]2(C)C(=O)CC[C@@H]12 [4-OH-Androstenedione, reference compound]
Ki (aromatase; Ki, Aromatase): 62 nM and 41 nM

C[C@]12CCC(=O)C=C1CC[C@@H]1[C@@H]2CC[C@]2(C)C(=O)CC[C@@H]12 [Androstenedione, reference compound]
Uterus Weight ([1]; androstenedione (AD) alone 30 mg/kg/day): 213.6 ± 32.4 mg/100 g BW and 183.5 ± 22.7 mg/100 g BW

N#Cc1ccc(C(=C2CCCC2)n2ccnc2)cc1 [C, 4-[1-Cyclopentylidene-1-(1-imidazolyl)methyl]benzonitrile]
Uterus Weight [1, 3]: 69.2 ± 5.7 mg/100 g BW | Inhibition in % (of uterus growth, based on the androstenedione group) [1, 3]: 85%

Cl.N#Cc1ccc(C(=C2CCCCC2)n2ccnc2)cc1 [Compound A, 4-[1-Cyclohexylidene-1-(1-imidazolyl)methyl]benzonitrile, hydrochloride]
Ki (aromatase; [4]): 0.19 nM | Uterus Weight [1, 5]: 108.2 ± 11.9 mg/100 g BW | Inhibition in % (of uterus growth, based on the androstenedione group) [1, 5]: 69% | Uterus Weight [1, 3]: 100.1 ± 18.8 mg/100 g BW | Inhibition in % (of uterus growth, based on the androstenedione group) [1, 3]: 74%

N#Cc1ccc(C(=C2CCCCC2)n2ccnc2)cc1 [Compound B, 4-[1-Cyclohexylidene-1-(1-imidazolyl)methyl]benzonitrile]
Ki (aromatase; [4]): 0.48 nM | Uterus Weight [1, 3]: 72.5 ± 10.3 mg/100 g BW | Inhibition in % (of uterus growth, based on the androstenedione group) [1, 3]: 82%
